Measurements reported in patent publication US8389564B2, “Proteasome inhibitors” (priority 2008, dated 2013).
Where two headings read alike, the source gives them in different places.

How the values were obtained:
[1] = target: T1, chymotrypsin-like activity of the 20S proteasome (Oryctolagus cuniculus, UniProt G1T4Q9); test: In vitro purified rabbit muscle 20S proteasome assay, chymotrypsin-like (CT-L) activity, Suc-LLVY-AMC substrate; type: biochemical
T1 construct: In Vitro Purified Rabbit Muscle 20S Proteasome Activity Assays; from tissue; host or cells: rabbit muscle
T1 sequence (G1T4Q9 1-263): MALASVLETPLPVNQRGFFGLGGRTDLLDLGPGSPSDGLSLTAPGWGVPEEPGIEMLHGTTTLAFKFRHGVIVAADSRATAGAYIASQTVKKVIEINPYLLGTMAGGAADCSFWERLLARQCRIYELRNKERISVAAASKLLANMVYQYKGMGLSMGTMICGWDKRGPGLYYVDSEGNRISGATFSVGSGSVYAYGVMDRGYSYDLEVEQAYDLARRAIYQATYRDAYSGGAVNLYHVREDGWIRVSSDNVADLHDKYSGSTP
Method: (§1) Serial diluted test compounds were added in duplicate to 1 μg/ml purified rabbit 20S proteasome in assay buffer containing 20 mM HEPES, pH7.3, 0.5 mM EDTA, 0.05% Triton X-100 and 0.035% SDS and pre-incubated for 5 min at 37° C. Reactions were initiated by the addition of the Suc-LLVY-AMC peptide substrate at a final concentration of 20 μM. Fluorescence of the cleaved peptide substrate was measured at λex=390 nm and λem=460 nm using a Fluoroskan Ascent 96-well microplate reader (Thermo Electron, Waltham, Mass.). […] The caspase-like activity of the 20S proteasome was determined as described above except that Z-LLEAMC was used as the peptide substrate. For the evaluation of the trypsin-like activity, the SDS was omitted from the assay buffer and Boc-LRR-AMC was used as the peptide substrate.

[2] = target: T2, caspase-like activity of the 20S proteasome (Oryctolagus cuniculus, UniProt A0A5F9DQW2); test: In vitro purified rabbit muscle 20S proteasome assay, caspase-like (C-L) activity, Z-LLEAMC substrate; type: biochemical
T2 construct: In Vitro Purified Rabbit Muscle 20S Proteasome Activity Assays; from tissue; host or cells: rabbit muscle
T2 sequence (A0A5F9DQW2 1-212): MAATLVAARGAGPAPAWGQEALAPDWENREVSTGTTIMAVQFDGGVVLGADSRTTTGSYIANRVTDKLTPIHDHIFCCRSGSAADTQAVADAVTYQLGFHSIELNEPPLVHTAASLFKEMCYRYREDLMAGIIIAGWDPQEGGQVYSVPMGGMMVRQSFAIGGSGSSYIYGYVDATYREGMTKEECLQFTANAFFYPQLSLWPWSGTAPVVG
Method: as §1

[3] = system: RPMI 8226; test: Cytotoxicity in RPMI 8226; details: Homo sapiens, RPMI-8226, read-out: Cytotoxicity in RPMI 8226 Average IC50 ± SD (nM)
Method: B16-F10 (ATCC; CRL-6475), DU 145 (ATCC; HTB-81), HEK293 (ATCC; CRL-1573), HT-29 (ATCC; HTB-38), LoVo (ATCC; CCL-229), MDA-MB-231 (ATCC; HTB-26), MIA PaCa-2 (ATCC; CRL-1420), NCI-H292 (ATCC; CRL-1848), OVCAR-3 (ATCC, HTB-161), PANC-1 (ATCC; CRL-1469), PC-3 (ATCC; CRL-1435), RPMI 8226 (ATCC; CCL-155) and U266 (ATCC; TIB-196) are maintained in appropriate culture media. The cells are cultured in an incubator at 37° C. in 5% CO2 and 95% humidified air.
20 mM stock solutions of the test compound are prepared in 100% DMSO, aliquoted and stored at −80° C. […] The plates are returned to the incubator for 48 hours. The final concentration of DMSO is 0.25% in all samples.
Following 48 hours of drug exposure, 10 μl of 0.2 mg/ml resazurin (obtained from Sigma-Aldrich Chemical Co.) in Mg^2+, Ca^2+ free phosphate buffered saline are added to each well and the plates are returned to the incubator for 3-6 hours. Since living cells metabolize Resazurin, the fluorescence of the reduction product of Resazurin is measured using a Fusion microplate fluorometer (Packard Bioscience) with λex=535 nm and λem=590 nm filters. Resazurin dye in medium without cells is used to determine the background, which was subtracted from the data for all experimental wells.

[4] = target: T3, trypsin-like activity of the 20S proteasome (Oryctolagus cuniculus, UniProt G1SWK8); test: In vitro purified rabbit muscle 20S proteasome assay, trypsin-like (T-L) activity, Boc-LRR-AMC substrate; type: biochemical
T3 construct: In Vitro Purified Rabbit Muscle 20S Proteasome Activity Assays; from tissue; host or cells: rabbit muscle
T3 sequence (G1SWK8 1-271): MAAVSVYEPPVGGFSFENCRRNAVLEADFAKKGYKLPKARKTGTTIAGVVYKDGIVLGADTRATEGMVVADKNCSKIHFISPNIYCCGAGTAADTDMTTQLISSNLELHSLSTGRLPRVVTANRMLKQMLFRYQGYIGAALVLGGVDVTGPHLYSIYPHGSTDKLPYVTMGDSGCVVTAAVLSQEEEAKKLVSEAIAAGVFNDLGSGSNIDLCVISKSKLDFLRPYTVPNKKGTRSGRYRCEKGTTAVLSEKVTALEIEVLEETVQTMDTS
Method: as §1

[5] = rabbit 20S proteasome, mean ± SD of 3 or more experiments, read-out: CT-L IC50
[6] = rabbit 20S proteasome, mean ± SD of 3 or more experiments, read-out: C-L IC50
[7] = rabbit 20S proteasome, mean ± SD of 3 or more experiments, read-out: T-L IC50

Compound: C[C@@]12OC(=O)[C@]1([C@@H](O)[C@@H]1C=CCCC1)NC(=O)[C@@H]2CCOS(=O)(=O)c1ccc(Oc2ccccc2)cc1
- IC50 [1]: 3.2 ± 0.2 nM
- IC50 [2]: 85 ± 9 nM
- IC50 [3]: 78 ± 25 nM
- IC50 [4]: 14 ± 1 nM

Compound: C[C@@]12OC(=O)[C@]1([C@@H](O)[C@@H]1C=CCCC1)NC(=O)[C@@H]2CCO [CH2CH2OH]
- IC50 [1, 5]: 14 ± 1.5 nM
- IC50 [2, 6]: 1200 ± 57 nM
- IC50 [3]: 38000 nM
- IC50 [4, 7]: 1200 ± 150 nM

Compound: C[C@@]12OC(=O)[C@]1([C@@H](O)[C@@H]1C=CCCC1)NC(=O)[C@@H]2CCOS(=O)(=O)c1ccc(-c2ccccc2)cc1
- IC50 [1]: 3.8 ± 0.1 nM
- IC50 [2]: 101 ± 11 nM
- IC50 [3]: 43 ± 12 nM
- IC50 [4]: 15 ± 1 nM

Compound: Cc1ccc(S(=O)(=O)OCC[C@H]2C(=O)N[C@@]3([C@@H](O)[C@@H]4C=CCCC4)C(=O)O[C@@]23C)cc1 [CH2CH2OTs]
- IC50 [1]: 2.5 ± 0.4 nM
- IC50 [2]: 127 ± 5 nM
- IC50 [3]: 27 ± 8.5 nM
- IC50 [4]: 9.9 ± 0.2 nM

Compound: CN(C)c1cccc2c(S(=O)(=O)OCC[C@H]3C(=O)N[C@@]4([C@@H](O)[C@@H]5C=CCCC5)C(=O)O[C@@]34C)cccc12 [CH2CH2ODs]
- IC50 [1]: 3 ± 0.5 nM
- IC50 [2]: 90 ± 11 nM
- IC50 [3]: 30 ± 6 nM
- IC50 [4]: 12 ± 2.3 nM

Compound: C[C@@]12OC(=O)[C@]1([C@@H](O)[C@@H]1C=CCCC1)NC(=O)[C@@H]2CCBr [CH2CH2Br]
- IC50 [1, 5]: 2.6 ± 0.4 nM
- IC50 [2, 6]: 290 ± 60 nM
- IC50 [3]: 7.8 ± 1.4 nM
- IC50 [4, 7]: 14 ± 2 nM

Compound: C[C@H]1C(=O)N[C@@]2([C@@H](O)[C@@H]3C=CCCC3)C(=O)O[C@@]12C [CH3]
- IC50 [1, 5]: 7.5 ± 0.6 nM
- IC50 [2, 6]: 460 ± 49 nM
- IC50 [3]: 6300 nM
- IC50 [4, 7]: 370 ± 44 nM

Compound: C[C@@]12OC(=O)[C@]1([C@@H](O)[C@@H]1C=CCCC1)NC(=O)[C@@H]2CCOC(=O)c1ccc(-c2ccccc2)cc1
- IC50 [1]: 9 ± 2 nM
- IC50 [2]: 160 ± 9 nM
- IC50 [3]: 290 ± 108 nM
- IC50 [4]: 52 ± 5 nM

Compound: C[C@@]12OC(=O)[C@]1([C@@H](O)[C@@H]1C=CCCC1)NC(=O)[C@@H]2CCOS(C)(=O)=O [CH2CH2OMs]
- IC50 [1]: 4.3 ± 0.8 nM
- IC50 [2]: 873 ± 32 nM
- IC50 [3]: 144 ± 46 nM
- IC50 [4]: 65 ± 8 nM

Compound: C[C@@]12OC(=O)[C@]1([C@@H](O)[C@@H]1C=CCCC1)NC(=O)[C@@H]2CCF [CH2CH2F]
- IC50 [1, 5]: 10 ± 0.7 nM
- IC50 [2, 6]: 781 ± 47 nM
- IC50 [3]: 875 ± 430 nM
- IC50 [4, 7]: 525 ± 15 nM

Compound: CCC[C@H]1C(=O)N[C@@]2([C@@H](O)[C@@H]3C=CCCC3)C(=O)O[C@@]12C [CH2CH2CH3]
- IC50 [1, 5]: 24 ± 5 nM
- IC50 [2, 6]: 1200 ± 200 nM
- IC50 [3]: 6300 nM
- IC50 [4, 7]: 1100 ± 200 nM

Compound: CC(C)(C)c1ccc(S(=O)(=O)OCC[C@H]2C(=O)N[C@@]3([C@@H](O)[C@@H]4C=CCCC4)C(=O)O[C@@]23C)cc1
- IC50 [1]: 3.2 ± 0.4 nM
- IC50 [2]: 180 ± 4 nM
- IC50 [3]: 94 ± 18 nM
- IC50 [4]: 31 ± 1 nM

Compound: C[C@@]12OC(=O)[C@]1([C@@H](O)[C@@H]1C=CCCC1)NC(=O)[C@@H]2CCI [CH2CH2I]
- IC50 [1, 5]: 2.8 ± 0.5 nM
- IC50 [2, 6]: 410 ± 230 nM
- IC50 [3]: 6.9 ± 0.9 nM
- IC50 [4, 7]: 13 ± 3 nM

Compound: C[C@@]12OC(=O)[C@]1([C@@H](O)[C@@H]1C=CCCC1)NC(=O)[C@@H]2CCCl [CH2CH2Cl, Salinosporamide A, reference compound]
- IC50 [3]: 9.8 ± 3 nM

Compound: CC[C@H]1C(=O)N[C@@]2([C@@H](O)[C@@H]3C=CCCC3)C(=O)O[C@@]12C [CH2CH3]
- IC50 [3]: 6300 nM
- IC50 [4, 7]: 610 ± 35 nM

Compound: CC(=O)OCC[C@H]1C(=O)N[C@@]2([C@@H](O)[C@@H]3C=CCCC3)C(=O)O[C@@]12C [CH2CH2OC(O)CH3]
- IC50 [1]: 9.1 ± 0.3 nM
- IC50 [2]: 971 ± 56 nM
- IC50 [3]: 20000 nM
- IC50 [4]: 745 ± 40 nM
